Experimental data from patent US20260061080A1, “FLUORESCENT COMPOUND BASED ON NEW INDOCYANINE GREEN IR820, AND PREPARATION AND USE THEREOF” (Shanghai Fluoresoma Medical Technology Co., Ltd., priority 2023, published 2026).

Columns and labels:
[1] = test system: tumor sites of tumor-bearing mice; experiment: Fluorescence imaging of IR820-cRGD in living tumor-bearing mice; format: in vivo; details: tail vein injection, solution in pure water at 10 μM (or equal equivalent probe concentration), observed 2 hours later; FIG. 5
Method: Three tumor-bearing mice were administered with an IR820-cRGD solution in pure water at a concentration of 10 μM, a […] solution in pure water at an equal equivalent probe concentration, and an IR820 solution in pure water at an equal equivalent probe concentration through tail vein injection, respectively. 2 hours later, tumor sites of the mice were observed using an in vivo imaging instrument for small animals to obtain imaging situations.

[2] = test system: breast cancer cells (MCF-7), cervical cancer cells (Hela), normal cells (CHO); details: 10 μL of 1 mM DMSO mother solution of probe in 2 mL culture dish; CHO vs MCF-7 and Hela; FIG. 4
Method: An instrument model used for cell imaging is a Leica TCS SP5 II confocal laser scanning microscope using a HC×PLAPO 63×oil objective (NA: 1.40).
The experiment was carried out in three groups, with one group using normal cells (CHO), one group using breast cancer cells (MCF-7), and one group using cervical cancer cells (Hela). Before an imaging test, a cultured cell culture solution was first sucked away, and the cells were washed once with a PBS buffer solution, and then washed once with DMEM or 1640. 10 μL of a formulated DMSO mother solution with a probe concentration of 1 mM was measured and added into a 2 mL culture dish containing a fresh DMEM or 1640 culture medium. After culture was completed, the excessive culture solution was first removed, the cells were washed with a PBS buffer solution (pH 7.4) to remove an excessive probe, and then the imaging test was carried out on the cells separately using a confocal fluorescence microscope.

Structure (SMILES)	fluorescence signal at the tumor site [1]	fluorescence signal in cells (selectivity for tumor cells) [2]
CC1(C)C(/C=C/C2=C(Oc3ccc(CCC(=O)NCCCC[C@@H]4NC(=O)[C@@H](Cc5ccccc5)NC(=O)[C@H](CC(=O)O)NC(=O)CNC(=O)[C@H](CCCNC(=N)N)NC4=O)cc3)C(=C/C=C3/N(CCCCS(=O)(=O)O)c4ccc5ccccc5c4C3(C)C)/CCC2)=[N+](CCCCS(=O)(=O)O)c2ccc3ccccc3c21 [IR820-cRGD]	highly bright fluorescence signal	greater selective fluorescence signals for the tumor cells
CC1(C)C(/C=C/C2=C(Cl)C(=C/C=C3/N(CCCCS(=O)(=O)[O-])c4ccc5ccccc5c4C3(C)C)/CCC2)=[N+](CCCCS(=O)(=O)O)c2ccc3ccccc3c21 [IR820]	weak fluorescence signal	–
